We go through three molecules from patent US4309425A (priority 1980, dated 1982).

Where two headings read alike, the source gives them in different places.

Assay [1] relates to Venturia inaequalis. As to the kind of experiment: apple scab preventive test. The assay is classed as in vivo. To be noted: 10-12 days. As to the method:
(§1) Compounds of this invention are dissolved in acetone in an amount equal to 6% of the final volume and then suspended at a concentration of 20 ppm in purified water containing 25 ppm of the surfactant Alkanol® XC (sodium alkyl naphthalene sulfonate). This suspension is sprayed to the point of run-off on apple seedlings. The following day, the plants are inoculated with a spore suspension of the fungus Venturia inaequalis and incubated in a growth room for 10-12 days. Disease ratings are then made. […] Phytotoxicity in the form of foliar burn was observed on some of the plants in association with disease control.

Assay [2] concerns Venturia inaequalis. Description: apple scab photostability test. The assay is classed as in vivo. To be noted: xenon arc 3500 foot candles 16 hours, 10-12 days. As for the experimental part:
as §1, with “seedlings. When the foliage is dry, the plants are exposed to 3500 foot candles of light from a xenon arc source for a period of 16 hours. This light source approximates the spectrum of natural sunlight, and is used to assess photostability of the compounds of this invention on plant foliage.” for “seedlings.”

Assay [3] concerns Venturia inaequalis. Description: apple scab residual wash-off test. In kind it is in vivo. To be noted: 1/2 inch simulated rainfall, 10-12 days. As to the method:
as §1, with “day, 1/2 inch of simulated rainfall is applied to the foliage of the plants. When the foliage is dry,” for “day,”, “on” for “on some of”

For another assay, the system named is adult houseflies. As to the kind of experiment: adult houseflies spray test. As to conditions: Musca domestica; 1% acetone solutions, 24 hours. The assay is classed as in vivo, housefly. The text has this: Twenty adult houseflies were confined in each of several cylindrical stainless steel cages (7.5 cm D×4 cm high) with wire screens of the ends. These were sprayed with 1% acetone solutions of the indicated compounds.

The test system of assay [4] is Erysiphe cichoracearum. Description: cucumber powdery mildew residual wash-off test. As to conditions: Golovinomyces cichoracearum, 168 h, 1/2 inch simulated rainfall, 7 days. In kind it is in vivo. As for the experimental part: Compounds of this invention are dissolved in acetone in an amount equal to 6% of the final volume and then suspended at a concentration of 20 ppm in purified water containing 25 ppm of the surfactant Alkanol® XC (sodium alkyl naphthalene sulfonate). This suspension is sprayed to the point of run-off on cucumber seedlings. The following day, 1/2 inch of simulated rainfall is applied to the foliage of the plants. When the foliage is dry, the plants are inoculated with a spore suspension on the fungus Erysiphe cichoracearum and incubated in a growth room for 7 days. Disease ratings are then made.

For the next assay, the system named is Erisyphe cichoracearum. Description: cucumber powdery mildew curative test. The assay is classed as in vivo. As to conditions: Cucumis sativus, 144 h, sprayed day after inoculation, additional 6 days. The text has this:
Cucumber plants are inoculated with a spore suspension of the fungus Erisyphe cichoracearum and in a growth room overnight. The following day, the plants are sprayed to the point of run-off with a suspension prepared by dissolving compounds of this invention in acetone in an amount equal to 6% of the final volume and then suspended at a concentration of 20 ppm in purified water containing 25 ppm of the surfactant Alkanol® XC (sodium alkyl naphthalene sulfonate). Plants are returned to the growth room for an additional 6 days when disease ratings are then made. […] Phytotoxicity in the form of foliar burn or growth reduction was observed on some of the plants in association with disease control.

For assay [5], the system named is Erysiphe cichoracearum. As to the kind of experiment: cucumber powdery mildew photostability test. As to conditions: Golovinomyces cichoracearum, 168 h, xenon arc 3500 foot candles 16 hours, 7 days. In kind it is in vivo. As to the method: Compounds of this invention are dissolved in acetone in an amount equal to 6% of the final volume and then suspended at a concentration of 20 ppm in purified water containing 25 ppm of the surfactant Alkanol® XC (sodium alkyl naphthalene sulfonate). This suspension is sprayed to the point of run-off in cucumber seedlings. When the foliage is dry, the plants are exposed to 3500 foot candles of light from a xenon arc source for a period of 16 hours. This light source approximates the spectrum of natural sunlight, and is used to assess photostability of the compounds of this invention on plant foliage. The following day, the plants are inoculated with a spore suspension of the fungus Erysiphe cichoracearum and incubated in a growth room for 7 days. Disease ratings are then made.

Assay [6] has as its system brown dog ticks (Rhipicephalus sanguineus). Description: brown dog ticks spray test. In kind it is in vivo. To be noted: 48 h, 12.5 ppm in acetone, forty eight hours. As for the experimental part:
Four-ounce wide mouth jars, each containing 10 brown dog ticks (Rhipicephalus sanguineus), were sprayed with 12.5 ppm concentration of the indicated compounds in acetone solution. The ticks were confined with caps which were also sprayed. Forty eight hours later, percent mortality was determined.

The subject of the next assay is Sclerotinia sclerotiorum. As to the kind of experiment: white mold on carrot sections dip test. As to conditions: 100 ppm dip, 20° C., six days. As to the method: Surface-sterilized carrot sections were dipped two minutes in a 100 ppm solution of the compounds of this invention. Additional sections were dipped in a check solution which contained 500 ppm Alkanol® XC (sodium alkyl naphthalene sulfonate). After inoculation by placing a mycelial plug of Sclerotinia sclerotiorum on each carrot section, the test was held at 20° C. for six days.
The untreated carrot sections were completely invaded with the mycelial growth of white mold fungus, but the treated sections had little or no growth by this disease causing organism.

Assay [7] deals with Puccinia graminis var. tritici. Description: whole plant or invertebrate. The assay is classed as in vivo. As to conditions: 192 h, read-out: % control wheat rust in preventive test.
Assay [8] deals with Erysiphe cichoracearum. As to the kind of experiment: cucumber powdery mildew preventive test. In kind it is in vivo. As to conditions: Golovinomyces cichoracearum, 168 h, 7 days. As to the method:
as §1, with “cucumber” for “apple”, “Erysiphe cichoracearum” for “Venturia inaequalis”, “7” for “10-12”, “burn or growth reduction” for “burn”

Assay [9] has as its system Phytophthora infestans. Description: whole plant or invertebrate. In kind it is in vivo. To be noted: in Solanum lycopersicum, 96 h, read-out: % control tomato late blight in a residual wash-off test.
The subject of assay [10] is Puccinia graminis var. tritici. As to the kind of experiment: whole plant or invertebrate. The assay is classed as in vivo. As to conditions: 192 h, read-out: % control wheat rust in a photostability test.
Assay [11] has as its system red-legged grasshoppers (Melanoplus femurrubrum). Description: red-legged grasshoppers spray test. To be noted: 10 ppm in acetone, 48 hours. The assay is classed as in vivo. As to the method: Five red-legged grasshoppers (Melanoplus femurrubrum) were confined in each of several cylindrical stainless steel cages (7.5 cm D×4 cm high) with wire screens at the end. These were sprayed with 10 ppm concentration of the indicated compounds in acetone solution. Percent mortality after 48 hours is recorded below.

Assay [12] deals with adult cotton boll weevils (Anthonomus grandis). Description: adult cotton boll weevils spray test. The assay is classed as in vivo. To be noted: 1% acetone solution, 24 hours. As to the method:
Five adult cotton boll weevils (Anthonomus grandis) were confined in a 4-oz. wide mouth jar. These were sprayed with a 1% acetone solution of the indicated compounds. Percent mortality after 24 hours is set forth below.

Assay [13] deals with Eggs of the beet armyworm (Spodoptera exigua). As to the kind of experiment: beet armyworm egg (ovicidal) test, % eggs failing to hatch. The assay is classed as in vivo. As to conditions: 72 h, 200 ppm in acetone, three days, read-out: % Control (% eggs failing to hatch). As for the experimental part:
Eggs of the beet armyworm (Spodoptera exigua), laid on cellophane discs each containing 50-75 eggs, were placed in petri dishes and lightly sprayed with 1% concentrations of the indicated compounds in acetone solution. Three days later, percent control (% eggs failing to hatch) was determined.
Eggs of the beet armyworm (Spodoptera exigua), laid on cellophane discs each containing 50-75 eggs, were placed in petri dishes and lightly sprayed with 200 ppm concentration of the indicated compounds in acetone solution. Three days later, percent control (% eggs failing to hatch) was determined.

The test system of assay [14] is Phytophthora infestans. Description: whole plant or invertebrate. In kind it is in vivo. As to conditions: in Solanum lycopersicum, 96 h, read-out: % control tomato late blight in a photostability test.
The subject of assay [15] is Puccinia graminis var. tritici. As to the kind of experiment: whole plant or invertebrate. The assay is classed as in vivo. As to conditions: 192 h, read-out: % control wheat rust in residual wash-off test.
For the next assay, the system named is Rhizopus. As to the kind of experiment: Rhizopus-corn meal mixture overspray test. To be noted: 168 h, read-out: % control Rhizopus. As to the method:
Compounds of this invention were dissolved in acetone in an amount equal to 6% of final volume and then suspended at a concentration of 100 ppm in purified water containing 500 ppm of the surfactant Alkanol® XC (sodium alkyl naphthalene sulfonate). This solution was oversprayed on a Rhizopus-corn meal mixture in 6 cm aluminum cups. The sprayed plates were placed in a closed plastic bag, stored at 20° C. for 7 days, and then rated.
The untreated cups were completely covered with Rhizopus mycelial growth, but the treated cups were mostly free of growth by this disease-causing organism.

The next assay deals with two-spotted mites. Description: two-spotted mites on bean plants, spray, mortality after two days. In kind it is in vivo. As to conditions: Tetranychus urticae, 48 h, read-out: % Mortality (2 days). As to the method:
Mortality was evaluated two days after spraying.
Mortality after two days is set forth below.

The test system of assay [16] is organo-phosphorous resistant two-spotted spider mites. As to the kind of experiment: organo-phosphorous resistant two-spotted spider mites on bean plants, spray, mortality after two days. To be noted: Tetranychus urticae, 48 h, read-out: % Mortality (2 days).
The next assay concerns Rhizoctonia solani. As to the kind of experiment: Rhizoctonia solani infested soil test, cotton. In kind it is in vivo. As to conditions: 192 h, 1.5 kg/ha, 8 days. An excerpt: Rhizoctonia solani-infested soil was placed in a 900 cc cup. Compounds of this invention were mixed at a rate of 1.5 kg/ha in a section 2" wide×2" deep×4" long to simulate an in-the-row application. Five cotton seeds were planted in the treated soil. After 8 days, the cotton plants were removed and rated for disease control.

Another assay relates to Pythium. Description: Pythium infested soil test, cotton. The assay is classed as in vivo. To be noted: 1.5 kg/ha, 8 days. An excerpt:
Pythium infested soil was placed in a 900 cc cup. Compounds of this invention were mixed at a rate of 1.5 kg/ha in a section 2" wide×2" deep×4" long to simulate an in-the-row application. Five cotton seeds were planted in the treated soil. After 8 days, the cotton plants were removed and rated for disease control.

Assay [17] concerns Phytophthora infestans. In kind it is in vivo. To be noted: 20 ppm, 4 days.

On to `CCCCN(SN(c1cc(C(F)(F)F)ccc1Cl)c1c([N+](=O)[O-])cc([N+](=O)[O-])cc1C(F)(F)F)S(=O)(=O)c1ccccc1`, for which the pest or weed control at 20 ppm is 100% in the assay with Venturia inaequalis [1]; 0% in the assay with Venturia inaequalis [2]; 100% in the assay on Venturia inaequalis [3]; 98% with Erysiphe cichoracearum [4]; 50% with Erisyphe cichoracearum; 0% in the assay on Erysiphe cichoracearum [5]. For the same molecule, the pest or weed control at 20 ppm in assay [7] was determined as 100%; in the assay with Erysiphe cichoracearum [8] it was 100%; in the assay with Phytophthora infestans [9] it was 100%; in assay [10] it was 90%; with Phytophthora infestans [14] it was 90%; in [15], 97%. The mortality at 1 % (with adult houseflies; in [12]) was 100% throughout. Further, the mortality at 12.5 ppm in [6] is 100%. Also, in the assay with Sclerotinia sclerotiorum, the “% control White Mold” value is reported as 86%. The mortality at 10 ppm in assay [11] is 100%. In addition, the mortality at 200 ppm in assay [13] is 100%.
On to `Cc1ccc(S(=O)(=O)N(SN(c2cc(C(F)(F)F)ccc2Cl)c2c([N+](=O)[O-])cc([N+](=O)[O-])cc2C(F)(F)F)C(C)C)cc1`, for which the pest or weed control at 20 ppm in the assay on Venturia inaequalis [1] was 100%; in the assay on Venturia inaequalis [2] it was 0%; in the assay with Venturia inaequalis [3] it was 100%; with Erysiphe cichoracearum [4], 99%; with Erisyphe cichoracearum it was 90%; in the assay on Erysiphe cichoracearum [5], 40%. Also, the pest or weed control at 20 ppm in [7] came to 100%; in the assay with Erysiphe cichoracearum [8], 100%; in the assay with Phytophthora infestans [9] it was 100%; in assay [10], 80%; with Phytophthora infestans [14] it was 90%; in assay [15], 97%. For the same molecule, the inhibition of growth at 100 ppm with Rhizopus amounted to 100%. Besides, in the assay on two-spotted mites (spray concentration .00025%), the mortality at 0.00025 % came out at 100%. The figures for the mortality at 0.0005 % (in the assay with two-spotted mites (spray concentration .0005%); in assay [16]) were 100% and 83%, respectively. Also, the values for the mortality at 0.001 % (in the assay with two-spotted mites (spray concentration .001%); in [16]) were 100% and 99%, respectively. Besides, in the assay on Sclerotinia sclerotiorum, the “% control White Mold” value is listed as 100%. The mortality at 0.002 % in assay [16] worked out at 99%.
`COC(=O)CN(SN(c1cc(C(F)(F)F)ccc1Cl)c1c([N+](=O)[O-])cc([N+](=O)[O-])cc1C(F)(F)F)S(=O)(=O)c1ccc(C)cc1`: the pest or weed control at 20 ppm in the assay with Venturia inaequalis [1], with Venturia inaequalis [2], in the assay on Venturia inaequalis [3], in the assay on Erysiphe cichoracearum [4], with Erisyphe cichoracearum and in the assay with Erysiphe cichoracearum [5] was 0% in each case. Besides, the pest or weed control at 20 ppm in assay [7] was found to be 30%; in the assay on Erysiphe cichoracearum [8] it was 0%; in the assay on Phytophthora infestans [9] it was 0%; in assay [10], 20%; in the assay with Phytophthora infestans [14], 0%; in assay [15] it was 25%. Besides, the pest or weed control at 1500 g/ha in the assay with Rhizoctonia solani worked out at 50%. Moreover, in the assay with Pythium, the “% control Pythium” value was found to be 50%. In the assay on Phytophthora infestans [17], the “% control tomato late blight in a preventive test” value is 0%.
